This note sets out measurements from ChEMBL document CHEMBL3865818, “4,5-Diaryl-3H-1,2-dithiole-3-thiones and related compounds as combretastatin A-4/oltipraz hybrids: Synthesis, molecular modelling and evaluation as antiproliferative agents and inhibitors of tubulin” (Eur J Med Chem, 2016).

The source made the active and inactive calls. No cut-off for these calls is given here.

Experiment [1] is described as follows: Antiproliferative activity against human HT1080 cells measured after 72 hrs by MTT assay. Type of experiment: functional, cell-based. The conditions noted are these: HT-1080, 72 h. On the technique in general: Formazan colour is commonly taken as a measure of viable cells.
Experiment [2] in a line: Antiproliferative activity against human SGC7901 cells measured after 72 hrs by MTT assay. Type of experiment: functional, cell-based. The following applies: SGC-7901, 72 h.
Experiment [3] can be described thus: Antiproliferative activity against human KB cells measured after 72 hrs by MTT assay. The format is functional, cell-based.
Experiment [4] in a line: Inhibition of porcine brain tubulin polymerization measured after 60 mins by fluorescence analysis. Also noted: species or system Sus scrofa.
Experiment [5] in a line: Cell cycle arrest in human KB cells assessed as accumulation at G2/M-phase at 0.2 uM measured up to 60 hrs by propidium iodide staining-based flow cytometry. Type of experiment: functional. For orientation: Flow cytometry measures light scatter and fluorescence of single cells or particles in a stream.
A short description of experiment [6]: Cell cycle arrest in human KB cells assessed as accumulation at G2/M-phase up to 0.2 uM measured after 24 hrs by propidium iodide staining-based flow cytometry. The format is functional.
Experiment [7] in a line: Antitumor activity against mouse SVR cells implanted in athymic nude mouse assessed as tumor growth inhibition at 250 mg/kg, po qd for 10 days measured on day 4 relative to control. The following applies: read-out: TGI.

A word on the IC50: it is the concentration that gives 50% inhibition. In the case of `COc1ccc(-c2c(-c3cc(OC)c(OC)c(OC)c3)ssc2=S)cc1[N+](=O)[O-]`, the half-inhibitory concentration (IC50) in experiment [1] amounted to 3.55 µM; in experiment [2], 44.7 µM; in experiment [3] it was 38.2 µM.
The like results for `COc1ccc(-c2ssc(=O)c2-c2cc(OC)c(OC)c(OC)c2)cc1[N+](=O)[O-]` were, in that order, 4.22 µM, 0.44 µM and 22.3 µM.
On the same counts, the results for `COc1ccc(-c2ssc(=O)c2-c2cc(OC)c(OC)c(OC)c2)cc1` are 0.464 µM, 0.134 µM and 0.324 µM.
Turning to `CO/N=c1/ssc(-c2cc(OC)c(OC)c(OC)c2)c1-c1ccc(OC)c(N)c1`, the IC50 in experiment [1] was found to be 0.915 µM; in experiment [2], 1.96 µM; in experiment [3] it was 0.517 µM.
On the same counts, the results for `COc1ccc(-c2ssc(=S)c2-c2cc(OC)c(OC)c(OC)c2)cc1O` are 0.231 µM, 0.271 µM and 0.435 µM.
For `COc1ccc(-c2ssc(=O)c2-c2cc(OC)c(OC)c(OC)c2)cc1O`, the IC50 in experiment [1] was 1.91 µM; in experiment [2], 3.11 µM; in experiment [3] it was 0.46 µM; in experiment [4] it was 9.71 µM. In addition, the result in experiment [5] and in experiment [6] was Active.
Take `COc1ccc(-c2c(-c3cc(OC)c(OC)c(OC)c3)ssc2=O)cc1`: the IC50 in experiment [1], in experiment [2] and in experiment [3] was more than 100 µM in each case.
As for `COc1ccc(-c2c(-c3cc(OC)c(OC)c(OC)c3)ss/c2=N/O)cc1`, the IC50 in experiment [1], in experiment [2] and in experiment [3] was more than 100 µM throughout.
With `COc1ccc(-c2c(-c3cc(OC)c(OC)c(OC)c3)ssc2=O)cc1[N+](=O)[O-]`, the IC50 in experiment [1], in experiment [2] and in experiment [3] was more than 100 µM in each case.
Consider `COc1ccc(-c2ss/c(=N/O)c2-c2cc(OC)c(OC)c(OC)c2)cc1O`, for which the IC50 was 0.73 µM in experiment [1], 0.2 µM in experiment [2] and 0.85 µM in experiment [3].
For `COc1ccc(-c2c(-c3cc(OC)c(OC)c(OC)c3)ssc2=O)cc1N`, the concentration for half-maximal inhibition (IC50) in experiment [1], in experiment [2] and in experiment [3] was more than 100 µM throughout.
For the compound `COc1ccc(-c2ssc(=S)c2-c2cc(OC)c(OC)c(OC)c2)cc1`, the figures for the IC50 in experiment [1], in experiment [2] and in experiment [3] were 18.6 µM, 21.1 µM and 4.91 µM, respectively.
For `CO/N=c1/ssc(-c2ccc(OC)c(O)c2)c1-c1cc(OC)c(OC)c(OC)c1`, the IC50 in experiment [1] was 4.6 µM; in experiment [2], 10 µM; in experiment [3], 14.5 µM.
Take `COc1ccc(-c2ss/c(=N/O)c2-c2cc(OC)c(OC)c(OC)c2)cc1N`: the IC50 is 9.36 µM in experiment [1], 4.3 µM in experiment [2], 0.099 µM in experiment [3] and 12.8 µM in experiment [4]. In addition, the result in experiment [5] and in experiment [6] was Active.
As for `COc1ccc(-c2c(-c3cc(OC)c(OC)c(OC)c3)ssc2=S)cc1`, the IC50 in experiment [1] worked out at 2.27 µM; in experiment [2], 2.35 µM; in experiment [3], 1.14 µM.
Turning to `COc1ccc(-c2ssc(=S)c2-c2cc(OC)c(OC)c(OC)c2)cc1[N+](=O)[O-]`, the IC50 in experiment [1] is 9.14 µM; in experiment [2], 13.6 µM; in experiment [3], more than 100 µM.
As to `COc1ccc(-c2c(-c3cc(OC)c(OC)c(OC)c3)ssc2=S)cc1N`, the IC50 was determined as 3 µM in experiment [1], 2.62 µM in experiment [2] and 2.17 µM in experiment [3].
The like results for `COc1ccc(-c2ss/c(=N/O)c2-c2cc(OC)c(OC)c(OC)c2)cc1` were, in that order, 6.66 µM, 17.4 µM and 13.7 µM.
`COc1ccc(-c2ssc(=S)c2-c2cc(OC)c(OC)c(OC)c2)cc1N`: the half-inhibitory concentration (IC50) in experiment [1] worked out at 0.834 µM; in experiment [2], 0.444 µM; in experiment [3], 0.327 µM.
With `Cc1c(-c2cnccn2)ssc1=S` [OLTIPRAZ], the inhibition in vivo at 250 mg/kg in experiment [7] came out at 81%.
Take `CO/N=c1/ssc(-c2ccc(OC)c(N)c2)c1-c1cc(OC)c(OC)c(OC)c1`: the IC50 in experiment [1] is 4.23 µM; in experiment [2], more than 100 µM; in experiment [3], 4.33 µM.
Regarding `CO/N=c1/ssc(-c2cc(OC)c(OC)c(OC)c2)c1-c1ccc(OC)c([N+](=O)[O-])c1`, the IC50 in experiment [1], in experiment [2] and in experiment [3] was more than 100 µM in each case.
For `COc1ccc(/C=C\c2cc(OC)c(OC)c(OC)c2)cc1O` [COMBRETASTATIN A4], the IC50 in experiment [1] came out at 0.01 µM; in experiment [2], 0.026 µM; in experiment [3] it was 0.007 µM; in experiment [4], 0.92 µM.
Regarding `COc1ccc(-c2c(-c3cc(OC)c(OC)c(OC)c3)ss/c2=N/O)cc1N`, the IC50 in experiment [1], in experiment [2] and in experiment [3] was 2.91 µM each time.
As to `COc1ccc(-c2c(-c3cc(OC)c(OC)c(OC)c3)ss/c2=N/O)cc1[N+](=O)[O-]`, the IC50 in experiment [1] was found to be 3.03 µM; in experiment [2] it was 6.56 µM; in experiment [3], 5.26 µM.
